In US8148391B2 (Cephalon, Inc., priority 2006, dated 2012):

Experiments:
[1] = target: T1, c-Met (cytoplasmic domain) (Homo sapiens, UniProt P08581); assay: c-Met Kinase Assay (same methods as for ALK, with modifications); assay type: biochemical; conditions: c-Met kinase inhibition, 1 μM ATP; read-out: cMet Activity
T1 construct: 10 ng/mL c-Met (cytoplasmic domain, Invitrogen Corporation #PV3143); purchased Invitrogen Corporation PV3143
In short: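 Steps: coat wells with PLC-γ (10 μg/mL, Tris-buffered saline); add 10 ng/mL c-Met cytoplasmic domain to initiate; incubate 15 min, 37° C; detect phosphoproduct via Eu-N1 PT66 antibody.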

[2] = target: T2, baculovirus-expressed ALK (Homo sapiens, UniProt Q9UM73); assay: ALK Kinase Assay (ELISA-type, time-resolved fluorescence); assay type: biochemical; conditions: ALK kinase inhibition, 1 μM ATP; read-out: ALK Activity
T2 construct: host or cells: baculovirus expression system
In short: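 Wells were coated with phospholipase C-γ at 10 μg/mL in Tris-buffered saline. Adding 30 ng/ml enzyme started the reaction, which ran at 37° C for 15 minutes before Eu-N1 PT66 antibody detection. Percent inhibition versus log10 concentration gave IC50 by variable-slope fit.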

T2 sequence (Q9UM73 19-1620): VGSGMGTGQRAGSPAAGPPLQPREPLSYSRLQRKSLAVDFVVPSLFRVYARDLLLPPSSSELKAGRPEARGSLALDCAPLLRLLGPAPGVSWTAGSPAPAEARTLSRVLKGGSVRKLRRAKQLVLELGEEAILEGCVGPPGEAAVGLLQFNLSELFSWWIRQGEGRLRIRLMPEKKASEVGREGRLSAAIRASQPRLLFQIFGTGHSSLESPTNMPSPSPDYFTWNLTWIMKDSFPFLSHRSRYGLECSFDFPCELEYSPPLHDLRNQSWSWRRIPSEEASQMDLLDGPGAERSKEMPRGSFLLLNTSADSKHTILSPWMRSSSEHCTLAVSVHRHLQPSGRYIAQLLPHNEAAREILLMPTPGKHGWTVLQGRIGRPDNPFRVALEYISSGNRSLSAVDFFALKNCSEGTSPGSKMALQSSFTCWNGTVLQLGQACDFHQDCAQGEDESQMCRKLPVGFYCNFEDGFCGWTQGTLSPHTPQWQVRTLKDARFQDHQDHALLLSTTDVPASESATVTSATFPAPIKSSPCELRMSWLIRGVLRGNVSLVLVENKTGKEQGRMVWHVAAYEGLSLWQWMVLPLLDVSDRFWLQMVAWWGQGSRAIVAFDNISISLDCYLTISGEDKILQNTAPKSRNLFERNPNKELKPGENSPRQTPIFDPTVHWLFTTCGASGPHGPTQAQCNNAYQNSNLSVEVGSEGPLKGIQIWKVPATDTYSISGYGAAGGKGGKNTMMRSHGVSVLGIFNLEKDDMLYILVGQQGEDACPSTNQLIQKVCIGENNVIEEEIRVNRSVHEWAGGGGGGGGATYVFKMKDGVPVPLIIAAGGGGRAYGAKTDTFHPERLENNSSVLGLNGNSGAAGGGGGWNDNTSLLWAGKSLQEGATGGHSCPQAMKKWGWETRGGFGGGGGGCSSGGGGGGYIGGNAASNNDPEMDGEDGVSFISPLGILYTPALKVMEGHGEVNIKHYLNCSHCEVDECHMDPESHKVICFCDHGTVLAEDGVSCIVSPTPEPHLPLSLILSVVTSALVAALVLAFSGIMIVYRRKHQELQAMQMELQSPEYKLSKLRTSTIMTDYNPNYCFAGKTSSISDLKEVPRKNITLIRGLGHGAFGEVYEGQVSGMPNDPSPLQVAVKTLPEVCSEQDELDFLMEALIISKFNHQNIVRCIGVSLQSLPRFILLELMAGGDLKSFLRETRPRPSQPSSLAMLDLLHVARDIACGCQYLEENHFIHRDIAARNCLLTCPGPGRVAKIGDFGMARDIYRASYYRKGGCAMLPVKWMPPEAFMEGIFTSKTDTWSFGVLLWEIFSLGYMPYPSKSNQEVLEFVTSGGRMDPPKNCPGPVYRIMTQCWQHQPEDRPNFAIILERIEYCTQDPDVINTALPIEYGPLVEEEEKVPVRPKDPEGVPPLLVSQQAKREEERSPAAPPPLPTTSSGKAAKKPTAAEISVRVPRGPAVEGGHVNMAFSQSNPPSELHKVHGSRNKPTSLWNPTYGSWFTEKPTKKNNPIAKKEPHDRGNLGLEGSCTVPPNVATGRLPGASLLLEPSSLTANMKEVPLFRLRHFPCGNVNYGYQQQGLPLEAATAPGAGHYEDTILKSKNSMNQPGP
T1 sequence (P08581 956-1390 limits assumed): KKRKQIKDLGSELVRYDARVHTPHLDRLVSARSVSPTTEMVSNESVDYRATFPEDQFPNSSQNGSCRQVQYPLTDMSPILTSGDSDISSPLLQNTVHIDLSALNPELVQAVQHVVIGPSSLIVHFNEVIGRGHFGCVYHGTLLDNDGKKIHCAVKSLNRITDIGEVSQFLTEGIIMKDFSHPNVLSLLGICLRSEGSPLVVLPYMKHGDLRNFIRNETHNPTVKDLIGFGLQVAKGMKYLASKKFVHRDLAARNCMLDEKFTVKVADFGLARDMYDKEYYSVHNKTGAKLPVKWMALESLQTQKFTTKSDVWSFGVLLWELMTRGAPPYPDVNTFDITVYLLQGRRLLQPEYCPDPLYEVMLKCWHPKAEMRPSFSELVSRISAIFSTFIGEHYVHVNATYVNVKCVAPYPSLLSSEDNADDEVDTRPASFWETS

SMILES | IC50 [1] [nM] | IC50 [2] [nM]
Cc1cccc(C(N)=O)c1Nc1nc(Nc2ccc3c(c2)C(C)(C)CCC(=O)N3)ncc1Cl [Example 1476, 2-[5-Chloro-2-(5,5-dimethyl-2-oxo-2,3,4,5-tetrahydro-1H-benzo[b]azepin-7-ylamino)-pyrimidin-4-ylamino]-3-methyl-benzamide] | 1000 to 10000 | 100 to 1000
CNC(=O)c1sccc1Nc1nc(Nc2ccc3c(c2)NC(=O)CCC3)ncc1Cl [Example 1477, 3-[5-Chloro-2-(2-oxo-2,3,4,5-tetrahydro-1H-benzo[b]azepin-8-ylamino)-pyrimidin-4-ylamino]-thiophene-2-carboxylic acid methylamide] | 100 to 1000 | 100 to 1000
CNC(=O)c1sccc1Nc1nc(Nc2ccc3c(c2)N(CCOC)C(=O)CCC3)ncc1Cl [Example 1478, 3-{5-Chloro-2-[1-(2-methoxy-ethyl)-2-oxo-2,3,4,5-tetrahydro-1H-benzo[b]azepin-8-ylamino]-pyrimidin-4-ylamino}-thiophene-2-carboxylic acid methylamide] | < 100 | 100 to 1000
CNC(=O)c1ccc2c(c1Nc1nc(Nc3ccc4c(c3)CCCC(=O)N4C)ncc1Cl)OCO2 [Example 1479, 4-[5-Chloro-2-(1-methyl-2-oxo-2,3,4,5-tetrahydro-1H-benzo[b]azepin-7-ylamino)-pyrimidin-4-ylamino]-benzo[1,3]dioxole-5-carboxylic acid methyl amide] | 1000 to 10000 | 100 to 1000
CNC(=O)c1ccc2c(c1Nc1nc(Nc3ccc4c(c3)CCN(CCOC)CC4)ncc1Cl)OCO2 [Example 1480, 4-{5-Chloro-2-[3-(2-methoxy-ethyl)-2,3,4,5-tetrahydro-1H-benzo[d]azepin-7-ylamino]-pyrimidin-4-ylamino}-benzo[1,3]dioxole-5-carboxylic acid methylamide] | 1000 to 10000 | 100 to 1000
CNC(=O)c1ccc2c(c1Nc1nc(Nc3ccc4c(c3)NC(=O)CCC4(C)C)ncc1Cl)OCO2 [Example 1481, 4-[5-Chloro-2-(5,5-dimethyl-2-oxo-2,3,4,5-tetrahydro-1H-benzo[b]azepin-8-ylamino)-pyrimidin-4-ylamino]-benzo[1,3]dioxole-5-carboxylic acid methyl amide] | 100 to 1000 | 100 to 1000
CNC(=O)c1ccc2c(c1Nc1nc(Nc3ccc4c(c3)NC(=O)CCC4)ncc1Cl)OCO2 [Example 1482, 4-[5-Chloro-2-(2-oxo-2,3,4,5-tetrahydro-1H-benzo[b]azepin-8-ylamino)-pyrimidin-4-ylamino]-benzo[1,3]dioxole-5-carboxylic acid methylamide] | 1000 to 10000 | 100 to 1000
CN1CCN(C2CCN(C3CCc4ccc(Nc5ncc(Cl)c(Nc6c(F)cccc6OCC#N)n5)cc4CC3)CC2)CC1 (centres unmarked) [Example 1483, [2-(5-Chloro-2-{7-[4-(4-methyl-piperazin-1-yl)-piperidin-1-yl]-6,7,8,9-tetrahydro-5H-benzocyclohepten-2-ylamino}-pyrimidin-4-ylamino)-3-fluoro-phenoxy]-acetonitrile] | < 100 | < 100
CNC(=O)c1ccsc1Nc1nc(Nc2ccc3c(c2)CCN(CCOC)CC3)ncc1Cl [Example 1484, 2-{5-Chloro-2-[3-(2-methoxy-ethyl)-2,3,4,5-tetrahydro-1H-benzo[d]azepin-7-ylamino]-pyrimidin-4-ylamino}-thiophene-3-carboxylic acid methylamide] | 100 to 1000 | 100 to 1000
CNC(=O)c1ccsc1Nc1nc(Nc2ccc3c(c2)NC(=O)CCC3)ncc1Cl [Example 1485, 2-[5-Chloro-2-(2-oxo-2,3,4,5-tetrahydro-1H-benzo[b]azepin-8-ylamino)-pyrimidin-4-ylamino]-thiophene-3-carboxylic acid methylamide] | 100 to 1000 | 1000 to 10000
CNC(=O)c1ccsc1Nc1nc(Nc2ccc3c(c2)NC(=O)CCC3(C)C)ncc1Cl [Example 1486, 2-[5-Chloro-2-(5,5-dimethyl-2-oxo-2,3,4,5-tetrahydro-1H-benzo[b]azepin-8-ylamino)-pyrimidin-4-ylamino]-thiophene-3-carboxylic acid methyl amide] | 1000 to 10000 | 1000 to 10000
CNC(=O)c1ccsc1Nc1nc(Nc2ccc3c(c2)CCCC(=O)N3C)ncc1Cl [Example 1487, 2-[5-Chloro-2-(1-methyl-2-oxo-2,3,4,5-tetrahydro-1H-benzo[b]azepin-7-ylamino)-pyrimidin-4-ylamino]-thiophene-3-carboxylic acid methylamide] | 100 to 1000 | 100 to 1000
CNC(=O)c1cccc(Cl)c1Nc1nc(Nc2ccc3c(c2)CCC(N2CCC(N4CCN(C)CC4)CC2)CC3)ncc1Cl (centres unmarked) [Example 1488, 3-Chloro-2-(5-chloro-2-{7-[4-(4-methyl-piperazin-1-yl)-piperidin-1-yl]-6,7,8,9-tetrahydro-5H-benzocyclohepten-2-ylamino}-pyrimidin-4-ylamino)-N-methyl-benzamide] | < 100 | 100 to 1000
CNC(=O)c1cccc(F)c1Nc1nc(Nc2ccc3c(c2)N(C(C)=O)CCCC3)ncc1Cl [Example 1489, 2-[2-(1-Acetyl-2,3,4,5-tetrahydro-1H-benzo[b]azepin-8-ylamino)-5-chloro-pyrimidin-4-ylamino]-3-fluoro-N-methyl-benzamide] | < 100 | 100 to 1000
C#CCNC(=O)c1cccc(F)c1Nc1nc(Nc2ccc3c(c2)N(C(C)=O)CCCC3)ncc1Cl [Example 1490, 2-[2-(1-Acetyl-2,3,4,5-tetrahydro-1H-benzo[b]azepin-8-ylamino)-5-chloro-pyrimidin-4-ylamino]-3-fluoro-N-prop-2-ynyl-benzamide] | < 100 | 100 to 1000
CNC(=O)c1cccc(F)c1Nc1nc(Nc2ccc3c(c2)NC(=O)C(N2CCOCC2)CC3)ncc1Cl (centres unmarked) [Example 1491, 2-[5-Chloro-2-(3-morpholin-4-yl-2-oxo-2,3,4,5-tetrahydro-1H-benzo[b]azepin-8-ylamino)-pyrimidin-4-ylamino]-3-fluoro-N-methyl-benzamide] | < 100 | < 100
COCCN1CCc2ccc(Nc3ncc(Cl)c(Nc4ccccc4S(=O)(=O)N4CCC(O)C4)n3)cc2CC1 (centres unmarked) [Example 1492, 1-(2-{5-Chloro-2-[3-(2-methoxy-ethyl)-2,3,4,5-tetrahydro-1H-benzo[d]azepin-7-ylamino]-pyrimidin-4-ylamino}-benzenesulfonyl)-pyrrolidin-3-ol] | < 100 | < 100
O=C1CCCc2ccc(Nc3ncc(Cl)c(Nc4ccccc4S(=O)(=O)N4CCC(O)C4)n3)cc2N1 (centres unmarked) [Example 1493, 8-{5-Chloro-4-[2-(3-hydroxy-pyrrolidine-1-sulfonyl)-phenylamino]-pyrimidin-2-ylamino}-1,3,4,5-tetrahydro-benzo[b]azepin-2-one] | < 100 | < 100
Cc1nnc(-c2ccccc2Nc2nc(Nc3ccc4c(c3)CCOC(=O)N4C)ncc2Cl)s1 [Example 1494, 2-{5-Chloro-4-[2-(5-methyl-[1,3,4]thiadiazol-2-yl)-phenylamino]-pyrimidin-2-ylamino}-5-methyl-8,9-dihydro-5H-7-oxa-5-aza-benzocyclohepten-6-one] | < 100 | 100 to 1000
CNC(=O)c1cccc(F)c1Nc1nc(Nc2ccc3c(c2)NC(=O)C(NCCOC)CC3)ncc1Cl (centres unmarked) [Example 1495, 2-{5-Chloro-2-[3-(2-methoxy-ethylamino)-2-oxo-2,3,4,5-tetrahydro-1H-benzo[b]azepin-8-ylamino]-pyrimidin-4-ylamino}-3-fluoro-N-methyl-benzamide] | 100 to 1000 | 1000 to 10000
CCN1C(=O)C(NC(=O)CN(C)C)CCc2ccc(Nc3ncc(Cl)c(Nc4c(F)cccc4C(=O)NC)n3)cc21 (centres unmarked) [Example 1496, 2-{5-Chloro-2-[3-(2-dimethylamino-acetylamino)-1-ethyl-2-oxo-2,3,4,5-tetrahydro-1H-benzo[b]azepin-8-ylamino]-pyrimidin-4-ylamino}-3-fluoro-N-methyl-benzamide] | < 100 | 100 to 1000
C#CCNC(=O)c1cccc(F)c1Nc1nc(Nc2ccc3c(c2)N(CC)C(=O)C(NC(=O)CN(C)C)CC3)ncc1Cl (centres unmarked) [Example 1497, 2-{5-Chloro-2-[3-(2-dimethylamino-acetylamino)-1-ethyl-2-oxo-2,3,4,5-tetrahydro-1H-benzo[b]azepin-8-ylamino]-pyrimidin-4-ylamino}-3-fluoro-N-prop-2-ynyl-benzamide] | < 100 | 100 to 1000
CCN1C(=O)C(NC(=O)COC)CCc2ccc(Nc3ncc(Cl)c(Nc4c(F)cccc4C(=O)NC)n3)cc21 (centres unmarked) [Example 1498, 2-{5-Chloro-2-[1-ethyl-3-(2-methoxy-acetylamino)-2-oxo-2,3,4,5-tetrahydro-1H-benzo[b]azepin-8-ylamino]-pyrimidin-4-ylamino}-3-fluoro-N-methyl-benzamide] | < 100 | 100 to 1000
C#CCNC(=O)c1cccc(F)c1Nc1nc(Nc2ccc3c(c2)N(CC)C(=O)C(NC(=O)COC)CC3)ncc1Cl (centres unmarked) [Example 1499, 2-{5-Chloro-2-[1-ethyl-3-(2-methoxy-acetylamino)-2-oxo-2,3,4,5-tetrahydro-1H-benzo[b]azepin-8-ylamino]-pyrimidin-4-ylamino}-3-fluoro-N-prop-2-ynyl-benzamide] | < 100 | 100 to 1000
COCCN1CCc2ccc(Nc3ncc(Cl)c(N[C@H]4CCC[C@H]4NS(C)(=O)=O)n3)cc2CC1 [Example 1501, N-((1R,2S)-2-{5-Chloro-2-[3-(2-methoxy-ethyl)-2,3,4,5-tetrahydro-1H-benzo[d]azepin-7-ylamino]-pyrimidin-4-ylamino}-cyclopentyl)-methanesulfonamide] | 1000 to 10000 | 100 to 1000
